According to patent US9045421B2, “Reagent and method for detection of carboxylic acids by mass spectrometry” (University of Washington, priority 2010, dated 2015):

System: primary human bronchial cells
Assay: Eicosanoid formation in calcium ionophore stimulated primary bronchial epithelial cells (LC/ESI-MSMS of AMPP amides)
Format: cell-based
Conditions: +Ca ionophore (A23187, 10 uM, 20 min, 37° C.); 0.47 million cells per sample
Method: The University of Washington Institutional Review Board approved the studies involving human subjects, and written informed consent was obtained from all participants. Primary bronchial epithelial cells were isolated from a volunteer with asthma during bronchoscopy using a nylon cytology brush of cells from subsegmental airways. To establish primary culture, the epithelial cells were seeded into a culture vessel coated with type 1 collagen in bronchial epithelial basal media (BEBM, Lonza, Allendale, N.J.) supplemented with bovine pituitary extract, insulin, hydrocortisone, gentamicin, amphotericin B, fluconazole, retinoic acid, transferrin, triiodothyronine, epinephrine, and human recombinant epidermal growth factor (serum-free BEGM) and maintained at 37° C. in a humidified incubator. After expansion in vitro, passage 2 epithelial cells were grown to >90% confluence on a 12-well plate. The medium was changed to Hanks balanced salt solution, and the cells were treated with either calcium ionophore (A23187, 10 uM) or a DMSO-containing control solution for 20 min at 37° C. In some studies, the cytosolic phospholipase A2-α inhibitor Pyr-2^6 was present at 5 uM, added from a stock solution in DMSO. The synthesis of eicosanoids was stopped by the addition of 4 volumes of ice methanol with 0.2% formic acid. […] The studies were performed in duplicate. Samples were processed for derivatization with AMPP and LC/ESI-MSMS as for the serum samples.

CNc1ccc2oc(C[C@H]3O[C@@]4(CC[C@H]3C)O[C@H]([C@H](C)C(=O)c3ccc[nH]3)[C@H](C)C[C@H]4C)nc2c1C(=O)O [Ca ionophore]
11(S)-HETE level: 3.7 pg | 15(S)-HETE level: 7.8 pg | Arachidonic acid level: 242 pg | PGD2 level: 4.4 pg | PGE2 level: 39 pg | PGF2α level: 60 pg | TxB2 level: 1.3 pg
